Assay results: patent publication US20220409727A1, “Metal Complexes Bearing Bisstyryl-Bipyridine Ligand and Their Use as Photosensitizer Agent in One and Two-Photon Photodynamic Therapy” (Paris Sciences et Lettres, priority 2019, published 2022)
Like-named read-outs stand apart in the source and are kept apart here.

Assays:
[1] = system: human cervical carcinoma (HeLa) cells; test: (Photo-)cytotoxicity on 2D cell monolayers, resazurin assay, HeLa; format: cell-based; conditions: for PI (480 nm): dark vs 480 nm (10 min, 3.1 J/cm^2)
Excerpt: Before an experiment, the cells were passaged three times.

HeLa MCTS = test: (Photo-)cytotoxicity on 3D multicellular tumor spheroids (ATP, CellTiter-Glo 3D); format: cell-based, human; conditions: for IC50: Homo sapiens
Protocol: autoclave. The hot emulsion was transferred into wells (50 μL per well) of a 96 cell culture well plate. The plates were exposed for 3 h to UV irradiation to ensure the sterility and allow the agarose solution to cool down. After this time, the agarose was overlayed with a HeLa cell suspension at a density of 3000 cells per well in 150 μL of media. The MCTS were cultivated and maintained at 37° C. in a cell culture incubator at 37° C. with 5% CO2 atmosphere. The culture media was replaced every two days. Within two-three days MCTs were formed from the cell suspension. The formation as well as integrity, diameter and volume of the MCTs was monitored by an Axio Observer Z1 (Carl Zeiss) phase contrast microscope. The volume was calculated using the following formula: V=4/3πr^3. The luminescence images along the z-axis were captured by a one-(λex=458 nm, λem=600-750 nm) or two-photon (λex=800 nm, λem=600-750 nm) excitation in the z-stack mode with a an LSM 880 (Carl Zeiss) laser scanning confocal microscope equipped with Argon and a Coherent Chameleon 2-Photon laser and a GaAsP detector.
The cytotoxicity of the compounds in 3D multicellular tumor spheroids (MCTS) was assessed by measurement of the ATP concentration. MCTS were treated with increasing concentrations of the compound (2% DMSO, v %) by replacing 50% of the media with drug supplemented media and incubation for 12 h. After this time, the MCTS were divided in three identical groups. The first group was strictly kept in the dark. The second group was exposed to a one-photon irradiation (500 nm, 10 J/cm^2) using a LED and the third group was exposed to a two-photon irradiation (800 nm, 10 J/cm^2) with a section interval of 5 μm using a LSM 880 (Carl Zeiss, Germany) laser scanning confocal microscope equipped with a Coherent Chameleon 2-Photon laser. After the irradiation, all groups were incubated additional 48 h. The ATP concertation was measured using a CellTiter-Glo 3D Cell Viability kit (Promega) by measuring the generated chemiluminescence with an infinite M200 PRO (Tecan) plate reader.

[2] = system: non-cancerous retinal pigment epithelium (RPE-1) cells; test: (Photo-)cytotoxicity on 2D cell monolayers, resazurin assay, RPE-1; conditions: for PI (480 nm): RPE-1, dark vs 480 nm (10 min, 3.1 J/cm^2);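 on all read-outs here: cells exposed to compound 4 h, medium exchanged, then irradiated or kept dark, 44 h further growth, viability by resorufin fluorescence (ex 540 nm, em 590 nm)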
[3] = system: mouse colon carcinoma (CT-26) cells
[4] = system: human glioblastoma astrocytoma (U373) cells
[5] = system: human glioblastoma astrocytoma (U373) cells; test: (Photo-)cytotoxicity on 2D cell monolayers, resazurin assay, U373; conditions: for IC50: Homo sapiens, U373 MG
[6] = system: mouse colon carcinoma (CT-26) cells; test: (Photo-)cytotoxicity on 2D cell monolayers, resazurin assay, CT-26; conditions: for IC50: Mus musculus
[7] = dark, 4 h incubation, compounds 1-3 as chloride salts, read-out: IC50 dark
[8] = read-out: IC50 480 nm (10 min, 3.1 J/cm^2), irradiation 480 nm (10 min, 3.1 J/cm^2), compounds 1-3 as chloride salts

| Molecule | PI (480 nm) [1] | IC50 [1, 7] [µM] | IC50 [1, 8] [µM] | PI (480 nm) [2] | also measured |
| --- | --- | --- | --- | --- | --- |
| COc1ccc(/C=C/c2ccnc(-c3cc(/C=C/c4ccc(OC)cc4)ccn3)c2)cc1.F[P-](F)(F)(F)(F)F.F[P-](F)(F)(F)(F)F.[Ru+2].c1cnc(-c2cnccn2)cn1.c1cnc(-c2cnccn2)cn1 [Compound 19, [Ru(bpz)2((E,E′)-4,4′-Bis[p-methoxystyryl]-2,2′-bipyridine)][PF6]2] | >2 | > 100 | 59 ± 8 |  |  |
| C1=Cc2nc1c(-c1ccccc1)c1ccc([nH]1)c(-c1ccccc1)c1nc(c(-c3ccccc3)c3ccc([nH]3)c2-c2ccccc2)C=C1 [Compound H2TPP, tetraphenylporphyrin, reference compound] |  |  |  |  | IC50 (HeLa MCTS; dark, 12 h incubation, read-out: IC50 dark): > 100 µM; IC50 (HeLa MCTS; light or radiation study, 1-Photon irradiation (500 nm, 10 J/cm^2), read-out: IC50 1-Photon irradiation (500 nm, 10 J/cm^2)): > 100 µM; IC50 (HeLa MCTS; light or radiation study, 2-Photon irradiation (800 nm, 10 J/cm^2, section interval of 5 μm), read-out: IC50 2-Photon irradiation (800 nm, 10 J/cm^2)): > 100 µM; PI (2-Photon) (HeLa MCTS; dark vs 2-Photon irradiation (800 nm, 10 J/cm^2)): >100 |
| F[P-](F)(F)(F)(F)F.F[P-](F)(F)(F)(F)F.Oc1ccc(/C=C/c2ccnc(-c3cc(/C=C/c4ccc(O)cc4)ccn3)c2)cc1.[Ru+2].c1ccc(-c2ccccn2)nc1.c1ccc(-c2ccccn2)nc1 [Compound 15, [Ru(bpy)2((E,E′)-4,4′-Bis[p-hydroxystyryl]-2,2′-bipyridine)][PF6]2] | >100 | > 100 | 1 ± 0.3 | >9 |  |
| COc1ccc(/C=C/c2ccnc(-c3cc(/C=C/c4ccc(OC)cc4)ccn3)c2)cc1.F[P-](F)(F)(F)(F)F.F[P-](F)(F)(F)(F)F.[Os+2].c1ccc(-c2ccccn2)nc1.c1ccc(-c2ccccn2)nc1 [Compound 16, [Os(bpy)2((E,E′)-4,4′-Bis[p-methoxystyryl]-2,2′-bipyridine)][PF6]2] | >4 | > 100 | 27 ± 6 | >3 |  |
| C=CC1=C(C)c2cc3[nH]c(cc4nc(cc5[nH]c(cc1n2)c(C)c5CCC(=O)O)C(CCC(=O)O)=C4C)c(C)c3C=C [PpIX, Protoporphyrin IX, reference compound] | >40.0 |  |  | >26.3 | IC50 ([1]; Homo sapiens, dark, 4 h incubation, compounds 1-3 as chloride salts, read-out: IC50 dark): > 100 µM; IC50 ([1]; Homo sapiens, light or radiation study, 10 min, read-out: IC50 480 nm (10 min), irradiation 480 nm (10 min, 3.1 J/cm^2), compounds 1-3 as chloride salts): 2.5 ± 0.1 µM; IC50 ([1]; Homo sapiens, light or radiation study, 40 min, read-out: IC50 540 nm (40 min), irradiation 540 nm (40 min, 9.5 J/cm^2), compounds 1-3 as chloride salts): 2.1 ± 0.3 µM; PI (540 nm) ([1]; dark vs 540 nm (40 min, 9.5 J/cm^2)): >47.6; IC50 [3]: 0.4 ± 0.2 µM; IC50 [4]: 1.2 ± 0.3 µM; IC50 ([5]; 4 h, read-out: IC50 dark): 10.1 ± 0.7 µM; IC50 ([5]; light or radiation study, 10 min, read-out: IC50 480 nm (10 min, 3.1 J/cm^2)): 1.3 ± 0.2 µM; PI (480 nm) ([5]; U373, dark vs 480 nm (10 min, 3.1 J/cm^2)): 7.8; PI (540 nm) ([5]; U373, dark vs 540 nm (40 min, 9.5 J/cm^2)): 8.4; PI (540 nm) ([2]; RPE-1, dark vs 540 nm (40 min, 9.5 J/cm^2)): >30.3; PI (480 nm) ([6]; CT-26, dark vs 480 nm (10 min, 3.1 J/cm^2)): 7.0; PI (540 nm) ([6]; CT-26, dark vs 540 nm (40 min, 9.5 J/cm^2)): 5.6; IC50 ([6]; CT26, 4 h, read-out: IC50 dark): 2.8 ± 0.5 µM; IC50 ([6]; CT26, light or radiation study, 40 min, read-out: IC50 540 nm (40 min, 9.5 J/cm^2)): 0.5 ± 0.2 µM |
| COc1cccc(/C=C/c2ccnc(-c3cc(/C=C/c4cccc(OC)c4)ccn3)c2)c1.F[P-](F)(F)(F)(F)F.F[P-](F)(F)(F)(F)F.[Ru+2].c1ccc(-c2ccccn2)nc1.c1ccc(-c2ccccn2)nc1 [Compound 12, [Ru(bpy)2((E,E′)-4,4′-Bis[m-methoxystyryl]-2,2′-bipyridine)][PF6]2] | >167 | > 100 | 0.6 ± 0.3 | >63 |  |
| COc1ccc(/C(C)=C/c2ccnc(-c3cc(/C=C(\C)c4ccc(OC)cc4)ccn3)c2)cc1.F[P-](F)(F)(F)(F)F.F[P-](F)(F)(F)(F)F.[Ru+2].c1ccc(-c2ccccn2)nc1.c1ccc(-c2ccccn2)nc1 [Compound 18] | >6 | > 100 | 16.7 ± 0.7 | >3 |  |
| COc1ccccc1C=Cc1ccnc(-c2cc(C=Cc3ccccc3OC)ccn2)c1.F[P-](F)(F)(F)(F)F.F[P-](F)(F)(F)(F)F.[Ru+2].c1ccc(-c2ccccn2)nc1.c1ccc(-c2ccccn2)nc1 [Compound 13, [Ru(bpy)2((E,E′)-4,4′-Bis[o-methoxystyryl]-2,2′-bipyridine)][PF6]2] | >124 | 62 ± 10 | 0.5 ± 0.1 | >66 |  |
| F[P-](F)(F)(F)(F)F.F[P-](F)(F)(F)(F)F.Fc1ccc(C=Cc2ccnc(-c3cc(C=Cc4ccc(F)cc4)ccn3)c2)cc1.[Ru+2].c1ccc(-c2ccccn2)nc1.c1ccc(-c2ccccn2)nc1 [Compound 14, [Ru(bpy)2((E,E′)-4,4′-Bis[p-fluorostyryl]-2,2′-bipyridine)][PF6]2] | >125 | > 100 | 0.8 ± 0.1 | >68 |  |
| [Ru(bpy)2((E,E′)-4,4′-Bis[p-aminostyryl]-2,2′-bipyridine)][PF6]2 [Compound 17] | >71 | > 100 | 1.4 ± 0.1 | >13 |  |
